{
  "source": "PubChem BioAssay AID2060902",
  "about": "(Molecular Pharmacology Branch, DTP, NCI, 2025)",
  "test_system": "485368-065-R3-J5-PDC spheroids with HUVEC/MSC, viability",
  "experiment": "Anticancer human tumor 485368-065-R3-J5-PDC patient-derived pancreatic carcinoma cell line growth inhibition [RAS]",
  "settings": "for IC50: curve of first compound; for viability, T/C: stronger effect = lower value",
  "method_in_brief": "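Agents were tested in combination matrices in half-log decrements from a top concentration at or near clinical Cmax (10 microM if undetermined). Targets were multi-cell spheroids of tumour lines plus HUVEC and MSC stromal cells.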",
  "key": {"[1]": {"settings": "second compound 0.00316 µM, first compound 0.000949 µM"}, "[2]": {"settings": "second compound 0.00316 µM, first compound 0.003 µM"}, "[3]": {"settings": "second compound 0.00316 µM, first compound 0.00949 µM"}, "[4]": {"settings": "second compound 0.00316 µM, first compound 0.03 µM"}, "[5]": {"settings": "second compound 0.00316 µM, first compound 0.0949 µM"}, "[6]": {"settings": "second compound 0.00316 µM, first compound 0.3 µM"}, "[7]": {"settings": "second compound 0.01 µM, first compound 0.000949 µM"}, "[8]": {"settings": "second compound 0.01 µM, first compound 0.003 µM"}, "[9]": {"settings": "second compound 0.01 µM, first compound 0.00949 µM"}, "[10]": {"settings": "second compound 0.01 µM, first compound 0.03 µM"}, "[11]": {"settings": "second compound 0.01 µM, first compound 0.0949 µM"}, "[12]": {"settings": "second compound 0.01 µM, first compound 0.3 µM"}, "[13]": {"settings": "second compound 0.0316 µM, first compound 0.000949 µM"}, "[14]": {"settings": "second compound 0.0316 µM, first compound 0.003 µM"}, "[15]": {"settings": "second compound 0.0316 µM, first compound 0.00949 µM"}, "[16]": {"settings": "second compound 0.0316 µM, first compound 0.03 µM"}, "[17]": {"settings": "second compound 0.0316 µM, first compound 0.0949 µM"}, "[18]": {"settings": "second compound 0.0316 µM, first compound 0.3 µM"}, "[19]": {"settings": "second compound 0.1 µM, first compound 0.000949 µM"}, "[20]": {"settings": "second compound 0.1 µM, first compound 0.003 µM"}, "[21]": {"settings": "second compound 0.1 µM, first compound 0.00949 µM"}, "[22]": {"settings": "second compound 0.1 µM, first compound 0.03 µM"}, "[23]": {"settings": "second compound 0.1 µM, first compound 0.0949 µM"}, "[24]": {"settings": "second compound 0.1 µM, first compound 0.3 µM"}, "[25]": {"settings": "second compound 0.316 µM, first compound 0.000949 µM"}, "[26]": {"settings": "second compound 0.316 µM, first compound 0.003 µM"}, "[27]": {"settings": "second compound 0.316 µM, first compound 0.00949 µM"}, "[28]": {"settings": "second compound 0.316 µM, first compound 0.03 µM"}, "[29]": {"settings": "second compound 0.316 µM, first compound 0.0949 µM"}, "[30]": {"settings": "second compound 0.316 µM, first compound 0.3 µM"}, "[31]": {"settings": "second compound 1 µM, first compound 0.000949 µM"}, "[32]": {"settings": "second compound 1 µM, first compound 0.003 µM"}, "[33]": {"settings": "second compound 1 µM, first compound 0.00949 µM"}, "[34]": {"settings": "second compound 1 µM, first compound 0.03 µM"}, "[35]": {"settings": "second compound 1 µM, first compound 0.0949 µM"}, "[36]": {"settings": "second compound 1 µM, first compound 0.3 µM"}},
  "data": [
    {"compound": "CC1(C)CCC(Nc2ncc(C(F)(F)F)c(-c3c[nH]c4c(P(C)(C)=O)c(C#N)ccc34)n2)CN1", "note": "(centres undefined) + C=CC(=O)N1CCN(c2nc(OCC3CCCN3C)nc3c(F)c(-c4nc(N)cc(C)c4C(F)(F)F)c(Cl)cc23)C(C)C1;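 note: spheroids exposed to agents for seven days before readout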", "values": [
      {"measurement": "IC50", "setting": "second compound 0.00316 µM", "value": 2.36, "unit": "nM"},
      {"measurement": "IC50", "setting": "second compound 0.01 µM", "value": 2.61, "unit": "nM"},
      {"measurement": "IC50", "setting": "second compound 0.0316 µM", "value": 3.73, "unit": "nM"},
      {"measurement": "IC50", "setting": "second compound 0.1 µM", "value": 3.95, "unit": "nM"},
      {"measurement": "IC50", "setting": "second compound 0.316 µM", "value": 2.89, "unit": "nM"},
      {"measurement": "IC50", "setting": "second compound 1 µM", "value": 4.02, "unit": "nM"},
      {"measurement": "viability, T/C", "setting": "[1]", "value": 92.5, "unit": "%"},
      {"measurement": "viability, T/C", "setting": "[2]", "value": 39.1, "unit": "%"},
      {"measurement": "viability, T/C", "setting": "[3]", "value": 26.9, "unit": "%"},
      {"measurement": "viability, T/C", "setting": "[4]", "value": 26.3, "unit": "%"},
      {"measurement": "viability, T/C", "setting": "[5]", "value": 30.9, "unit": "%"},
      {"measurement": "viability, T/C", "setting": "[6]", "value": 27.9, "unit": "%"},
      {"measurement": "viability, T/C", "setting": "[7]", "value": 87.5, "unit": "%"},
      {"measurement": "viability, T/C", "setting": "[8]", "value": 44.9, "unit": "%"},
      {"measurement": "viability, T/C", "setting": "[9]", "value": 26.5, "unit": "%"},
      {"measurement": "viability, T/C", "setting": "[10]", "value": 28.2, "unit": "%"},
      {"measurement": "viability, T/C", "setting": "[11]", "value": 28.2, "unit": "%"},
      {"measurement": "viability, T/C", "setting": "[12]", "value": 29.1, "unit": "%"},
      {"measurement": "viability, T/C", "setting": "[13]", "value": 73.6, "unit": "%"},
      {"measurement": "viability, T/C", "setting": "[14]", "value": 54, "unit": "%"},
      {"measurement": "viability, T/C", "setting": "[15]", "value": 32.8, "unit": "%"},
      {"measurement": "viability, T/C", "setting": "[16]", "value": 30.6, "unit": "%"},
      {"measurement": "viability, T/C", "setting": "[17]", "value": 30.8, "unit": "%"},
      {"measurement": "viability, T/C", "setting": "[18]", "value": 28.2, "unit": "%"},
      {"measurement": "viability, T/C", "setting": "[19]", "value": 83.5, "unit": "%"},
      {"measurement": "viability, T/C", "setting": "[20]", "value": 55.5, "unit": "%"},
      {"measurement": "viability, T/C", "setting": "[21]", "value": 32.3, "unit": "%"},
      {"measurement": "viability, T/C", "setting": "[22]", "value": 30.9, "unit": "%"},
      {"measurement": "viability, T/C", "setting": "[23]", "value": 30.5, "unit": "%"},
      {"measurement": "viability, T/C", "setting": "[24]", "value": 34.3, "unit": "%"},
      {"measurement": "viability, T/C", "setting": "[25]", "value": 100, "unit": "%"},
      {"measurement": "viability, T/C", "setting": "[26]", "value": 48.4, "unit": "%"},
      {"measurement": "viability, T/C", "setting": "[27]", "value": 32.6, "unit": "%"},
      {"measurement": "viability, T/C", "setting": "[28]", "value": 28.4, "unit": "%"},
      {"measurement": "viability, T/C", "setting": "[29]", "value": 30.6, "unit": "%"},
      {"measurement": "viability, T/C", "setting": "[30]", "value": 27.4, "unit": "%"},
      {"measurement": "viability, T/C", "setting": "[31]", "value": 87.1, "unit": "%"},
      {"measurement": "viability, T/C", "setting": "[32]", "value": 55.1, "unit": "%"},
      {"measurement": "viability, T/C", "setting": "[33]", "value": 35.8, "unit": "%"},
      {"measurement": "viability, T/C", "setting": "[34]", "value": 25.6, "unit": "%"},
      {"measurement": "viability, T/C", "setting": "[35]", "value": 32.1, "unit": "%"},
      {"measurement": "viability, T/C", "setting": "[36]", "value": 34.2, "unit": "%"}
    ]},
    {"compound": "CCc1c2c(nc3ccc(O)cc13)-c1cc3c(c(=O)n1C2)COC(=O)[C@]3(O)CC", "note": "+ C=CC(=O)N1CCN(c2nc(OCC3CCCN3C)nc3c(F)c(-c4nc(N)cc(C)c4C(F)(F)F)c(Cl)cc23)C(C)C1", "values": [
      {"measurement": "IC50", "setting": "second compound 0.00316 µM", "value": 1.96, "unit": "nM"},
      {"measurement": "IC50", "setting": "second compound 0.01 µM", "value": 2.09, "unit": "nM"},
      {"measurement": "IC50", "setting": "second compound 0.0316 µM", "value": 2.15, "unit": "nM"},
      {"measurement": "IC50", "setting": "second compound 0.1 µM", "value": 2.06, "unit": "nM"},
      {"measurement": "IC50", "setting": "second compound 0.316 µM", "value": 2.08, "unit": "nM"},
      {"measurement": "IC50", "setting": "second compound 1 µM", "value": 1.76, "unit": "nM"},
      {"measurement": "viability, T/C", "setting": "[1]", "value": 87.9, "unit": "%"},
      {"measurement": "viability, T/C", "setting": "[2]", "value": 25.8, "unit": "%"},
      {"measurement": "viability, T/C", "setting": "[3]", "value": 15.8, "unit": "%"},
      {"measurement": "viability, T/C", "setting": "[4]", "value": 6.75, "unit": "%"},
      {"measurement": "viability, T/C", "setting": "[5]", "value": 4.49, "unit": "%"},
      {"measurement": "viability, T/C", "setting": "[6]", "value": 3.28, "unit": "%"},
      {"measurement": "viability, T/C", "setting": "[7]", "value": 90.6, "unit": "%"},
      {"measurement": "viability, T/C", "setting": "[8]", "value": 28.9, "unit": "%"},
      {"measurement": "viability, T/C", "setting": "[9]", "value": 17.6, "unit": "%"},
      {"measurement": "viability, T/C", "setting": "[10]", "value": 7.17, "unit": "%"},
      {"measurement": "viability, T/C", "setting": "[11]", "value": 3.98, "unit": "%"},
      {"measurement": "viability, T/C", "setting": "[12]", "value": 3.67, "unit": "%"},
      {"measurement": "viability, T/C", "setting": "[13]", "value": 89.7, "unit": "%"},
      {"measurement": "viability, T/C", "setting": "[14]", "value": 33.6, "unit": "%"},
      {"measurement": "viability, T/C", "setting": "[15]", "value": 13, "unit": "%"},
      {"measurement": "viability, T/C", "setting": "[16]", "value": 6.26, "unit": "%"},
      {"measurement": "viability, T/C", "setting": "[17]", "value": 4.82, "unit": "%"},
      {"measurement": "viability, T/C", "setting": "[18]", "value": 3.26, "unit": "%"},
      {"measurement": "viability, T/C", "setting": "[19]", "value": 85.4, "unit": "%"},
      {"measurement": "viability, T/C", "setting": "[20]", "value": 32.5, "unit": "%"},
      {"measurement": "viability, T/C", "setting": "[21]", "value": 12.2, "unit": "%"},
      {"measurement": "viability, T/C", "setting": "[22]", "value": 6.25, "unit": "%"},
      {"measurement": "viability, T/C", "setting": "[23]", "value": 4.43, "unit": "%"},
      {"measurement": "viability, T/C", "setting": "[24]", "value": 3.35, "unit": "%"},
      {"measurement": "viability, T/C", "setting": "[25]", "value": 81.7, "unit": "%"},
      {"measurement": "viability, T/C", "setting": "[26]", "value": 34.7, "unit": "%"},
      {"measurement": "viability, T/C", "setting": "[27]", "value": 15.1, "unit": "%"},
      {"measurement": "viability, T/C", "setting": "[28]", "value": 5.63, "unit": "%"},
      {"measurement": "viability, T/C", "setting": "[29]", "value": 4.4, "unit": "%"},
      {"measurement": "viability, T/C", "setting": "[30]", "value": 3.28, "unit": "%"},
      {"measurement": "viability, T/C", "setting": "[31]", "value": 74.6, "unit": "%"},
      {"measurement": "viability, T/C", "setting": "[32]", "value": 26.8, "unit": "%"},
      {"measurement": "viability, T/C", "setting": "[33]", "value": 16.5, "unit": "%"},
      {"measurement": "viability, T/C", "setting": "[34]", "value": 5.78, "unit": "%"},
      {"measurement": "viability, T/C", "setting": "[35]", "value": 5.14, "unit": "%"},
      {"measurement": "viability, T/C", "setting": "[36]", "value": 3.4, "unit": "%"}
    ]}
  ]
}
